Source: paper PMC5042873 (Journal of the American Chemical Society, 2016)

Columns and labels:
[1] = In vivo toxicity by body weight and general behavior; design: species or system Balb/c mice; conditions: 5 mg/kg, 4X in 8 days
[2] = system: GLUT1 expressing breast cancer (G1fpt); experiment: In vivo antitumor efficacy, GLUT1 expressing breast cancer syngeneic model; design: species or system Balb/c mice; conditions: 5 mg/kg i.v. bolus, four treatments once every other day, 30 days
GLUT1 transporters = conditions: cited from earlier work

Structure (SMILES)	body weight [1]	antitumor efficacy (tumor volume) [2]	tumors smaller compared to tumors in the PBS treated control group [2] [times]	affinity for GLUT1 transporters relative to D-glucose (GLUT1 transporters) [fold]
O=C1[O][Pt]2([NH][C@@H]3CCCC[C@H]3[NH]2)[O]C1=O [oxaliplatin]	reduced after the second dose but recovered to normal values	no statistically significant difference compared to the Glc-Pt 2 treated group	10	
O=[N+]([O-])c1ccc(NCC2OC(O)C(O)C(O)[C@@H]2O)c2nonc12 (stereo partly shown) [6-NBDG]				300
